Measurements as given in patent US4870097A, “Pharmaceutical use of derivatives of tryptophan” (priority 1984, dated 1989).

Assays:
[1] = test system: analgesic activity of morphine; assay: Tail Flick Test: increase in the analgesic effect of morphine; type: in vivo, rats
In short: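 Male non-fasted rats, 150-200 g; heat source (75 °C) on tail, latency to tail movement timed, 8 s cut-off. Measured before and 10, 20, 30, 45, 60, 90 min after analgesic dosing; percentage variation per animal, averaged over groups of five.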

[2] = test system: tolerance induced by morphine; assay: Antagonism to the development of tolerance to repeated administration of morphine HCl (tail flick); type: in vivo, rats
In short: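 Male rats, about 200-250, in groups of six, dosed every 24 h with 3 mg/kg morphine HCl i.p. plus 3 mg/kg i.p. test compound; saline-only and morphine-only groups run alongside. Pain threshold measured by tail flick at […], 30', 45' and 60' after each treatment.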

[3] = test system: activity of analgesic drugs; assay: Hot plate test: potentiation of analgesic drugs; type: in vivo, rats
Method: The method is that described by Eddy et al. (J. Pharmac. Exp. Ther. 107, 385 (1953)).
Groups of five male rats having a weight of about 150 g and which have not been fasting are used.
The animals are placed on a metal plate which is on the bottom of a transparent cylinder heated to 55°±1° C. by an azeotropic boiling mixture (1:1 acetone-ethyl formate). The time which passes between the moment at which the animal is placed on the hot plate and the moment at which it licks its feet or tries to jump out of the cylinder is defined as the reaction time. The control reaction time is measured 10 and 5 minutes before the administration of the drugs and 10, 20, 30, 45, 60, 90 minutes afterwards. The animals are left on the plate for a maximum period of 30 seconds.
The response to the administration of the product is considered positive if at least a doubling of the normal reaction time is seen. The results obtained are given in Table 2 which records the groups treated, the dose administered and the stay times on the plate expressed as the number of positive responses over the number treated.

endogenous opiates = assay: Tail Flick Test after transcutaneous shock: analgesic activity of endogenous opiates; type: in vivo, rats; details: for Average latency, 5': 5' after electric shock; for Average latency, 10': 10' after electric shock; for Average latency, 15': 15' after electric shock
Method: Influence of several of the compounds of the invention on the analgesic activity of endogenous opiates released under transcutaneous shock in rats measured by the Tail Flick Test
The method is that described by Lewis et al. (J. Neurosc. 1, 358 (1981). Male rats having a weight of about 200 g, which have not been fasting, are used.
The animals are stressed by the application to the front leg of a 60 Hz-2.5 mA current in pulses of a duration of one second every five seconds for 20 minutes.
This stress regime causes the release of endogenous opiates.

[4] = test system: guinea pig gall bladder contracted with CCK-8; assay: Anti-CCK activity on guinea pig gall bladders in vitro; type: biochemical; details: CCK-8 10 ng/ml, concentration antagonising 50% of contracting effect
In short: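 Longitudinal gall bladder strips in Krebs at 32° C, gassed with O2/CO2 95:5, were contracted with CCK-8 at 10 ng/ml and contractions recorded isometrically via force transducer. ED50 in mcg/ml is the compound concentration antagonising 50% of CCK contraction, derived by regression over at least three experiments.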

[5] = days 0-7, 3 mg/kg + morphine (row Morphine: alone)
[6] = oxyphenylbutazone 50 + C. 33 5 mg/kg i.p.
[7] = oxyphenylbutazone 50 + C. 33 10 mg/kg i.p.
[8] = oxyphenylbutazone 50 + C. 33 20 mg/kg i.p.

**Q.** Which “percentage variation in the latency of the pain sensation, 10'” value ([1]; 10', compound 10 mg/kg i.p. + morphine 2 mg/kg (row Morphine: alone), ± S.E.) does the source give for `O=C(N[C@@H](Cc1c[nH]c2ccccc12)C(=O)O)OC(c1ccccc1)c1ccccc1` [Compound 33] here?
**A.** 100.0 ± 0.0%

**Q.** What about the “percentage variation in the latency of the pain sensation, 20'” value ([1]; 20', compound 10 mg/kg i.p. + morphine 2 mg/kg (row Morphine: alone), ± S.E.) of the same compound?
**A.** 87.6 ± 12.4%

**Q.** And the “percentage variation in the latency of the pain sensation, 45'” value ([1]; 45', compound 10 mg/kg i.p. + morphine 2 mg/kg (row Morphine: alone), ± S.E.)?
**A.** 97.0 ± 3.0%

**Q.** What about the “percentage variation in the latency of the pain sensation, 60'” value ([1]; 60', compound 10 mg/kg i.p. + morphine 2 mg/kg (row Morphine: alone), ± S.E.) of the same compound?
**A.** 65.7 ± 21.4%

**Q.** And the “percentage variation in the latency of the pain sensation, 90'” value ([1]; 90', compound 10 mg/kg i.p. + morphine 2 mg/kg (row Morphine: alone), ± S.E.)?
**A.** 58.1 ± 21.7%

**Q.** What about the “M(10'-90') average percentage variation” value ([1]; mean 10'-90', compound 10 mg/kg i.p. + morphine 2 mg/kg (row Morphine: alone)) of the same compound?
**A.** 82.9%

**Q.** And the “Potency ratio relative to morphine alone” value ([1]; rat, in vivo)?
**A.** 2.78

**Q.** What about the “percentage variation in the latency of the pain sensation, 30'” value ([1]; rat, in vivo) of the same compound?
**A.** 89.2 ± 10.8

**Q.** And the “percentage variation in the latency time, day 0” value ([2]; day 0, 3 mg/kg i.p. + morphine HCl 3 mg/kg i.p. (row Morphine: alone))?
**A.** 50.12%

**Q.** And the “percentage variation in the latency time, day 1” value ([2]; day 1, 3 mg/kg i.p. + morphine HCl 3 mg/kg i.p. (row Morphine: alone))?
**A.** 67.02%

**Q.** What about the “percentage variation in the latency time, day 2” value ([2]; day 2, 3 mg/kg i.p. + morphine HCl 3 mg/kg i.p. (row Morphine: alone)) of the same compound?
**A.** 51.47%

**Q.** And the “percentage variation in the latency time, day 3” value ([2]; day 3, 3 mg/kg i.p. + morphine HCl 3 mg/kg i.p. (row Morphine: alone))?
**A.** 34.92%

**Q.** And the “percentage variation in the latency time, day 4” value ([2]; day 4, 3 mg/kg i.p. + morphine HCl 3 mg/kg i.p. (row Morphine: alone))?
**A.** 67.3%

**Q.** And the “percentage variation in the latency time, day 5” value ([2]; day 5, 3 mg/kg i.p. + morphine HCl 3 mg/kg i.p. (row Morphine: alone))?
**A.** 61.08%

**Q.** What about the “percentage variation in the latency time, day 6” value ([2]; day 6, 3 mg/kg i.p. + morphine HCl 3 mg/kg i.p. (row Morphine: alone)) of the same compound?
**A.** 20.02%

**Q.** And the “percentage variation in the latency time, day 7” value ([2]; day 7, 3 mg/kg i.p. + morphine HCl 3 mg/kg i.p. (row Morphine: alone))?
**A.** 10.33%

**Q.** What about the “Area subtended (1)” value [2, 5] of the same compound?
**A.** 382.1 Effect-Day

**Q.** And the “regression line % Effect versus Day” value [2, 5]?
**A.** % Effect = - 5.38 Day + 64.12

**Q.** And the “Area 1 / Area Morphine” value ([2]; rat, in vivo, 3 mg/kg)?
**A.** 2.72

**Q.** And the “Positive Total X/25” value [3, 6]?
**A.** 17

**Q.** What about the “positive responses over the number treated, 10'” value [3, 6] of the same compound?
**A.** 3/5

**Q.** And the “positive responses over the number treated, 20'” value [3, 6]?
**A.** 3/5

**Q.** What about the “positive responses over the number treated, 30'” value [3, 6] of the same compound?
**A.** 4/5

**Q.** What about the “positive responses over the number treated, 45'” value [3, 6] of the same compound?
**A.** 4/5

**Q.** And the “positive responses over the number treated, 60'” value [3, 6]?
**A.** 3/5

**Q.** What about the “Positive Total X/25” value [3, 7] of the same compound?
**A.** 21

**Q.** What about the “positive responses over the number treated, 10'” value [3, 7] of the same compound?
**A.** 3/5

**Q.** What about the “positive responses over the number treated, 20'” value [3, 7] of the same compound?
**A.** 5/5

**Q.** What about the “positive responses over the number treated, 30'” value [3, 7] of the same compound?
**A.** 5/5

**Q.** And the “positive responses over the number treated, 45'” value [3, 7]?
**A.** 5/5

**Q.** And the “positive responses over the number treated, 60'” value [3, 7]?
**A.** 3/5

**Q.** What about the “Positive Total X/25” value [3, 8] of the same compound?
**A.** 22

**Q.** And the “positive responses over the number treated, 10'” value [3, 8]?
**A.** 4/5

**Q.** What about the “positive responses over the number treated, 20'” value [3, 8] of the same compound?
**A.** 5/5

**Q.** And the “positive responses over the number treated, 30'” value [3, 8]?
**A.** 5/5

**Q.** And the “positive responses over the number treated, 45'” value [3, 8]?
**A.** 4/5

**Q.** What about the “positive responses over the number treated, 60'” value [3, 8] of the same compound?
**A.** 4/5

**Q.** What about the “Average latency, 5'” value (endogenous opiates; 0.5 mg/kg i.v. + stress) of the same compound?
**A.** 6.68 ± 0.53 s

**Q.** What about the “Average latency, 5'” value (endogenous opiates; 2 mg/kg i.v. + stress) of the same compound?
**A.** 9.92 ± 0.92 s

**Q.** And the “Average latency, 10'” value (endogenous opiates; 0.5 mg/kg i.v. + stress)?
**A.** 6.58 ± 0.46 sec.

**Q.** What about the “Average latency, 10'” value (endogenous opiates; 2 mg/kg i.v. + stress) of the same compound?
**A.** 8.1 ± 1.0 sec.

**Q.** What about the “Average latency, 15'” value (endogenous opiates; 0.5 mg/kg i.v. + stress) of the same compound?
**A.** 5.3 ± 0.56 s

**Q.** And the “Average latency, 15'” value (endogenous opiates; 2 mg/kg i.v. + stress)?
**A.** 6.51 ± 0.48 s

**Q.** And the “Anti CCK-8 activity, ED50” value [4]?
**A.** 76.3 µg/mL
